Data published in PMC5748281 (ACS Omega, 2017).
Entries after “also recorded” stand apart in the source; their conditions may differ. Like-named read-outs stand apart in the source and are kept apart here.

Key:
yeast cells = conditions: cited from earlier work
S. cerevisiae [1] = experiment: DEL; conditions: IC80 concentration; for Induction of deletion, fold increase over untreated control, Obsd: 17 h, DEL(URA3) strain, average of three samples; for deletion formation / genotoxicity in words: DEL assay
S. cerevisiae [2] = experiment: Growth inhibition assay, 96-well microplate format; assay type: cell-based, Saccharomyces cerevisiae; conditions: for IC80: read-out: log 1/IC80 Obsd (converted)
yeast = conditions: aniline metabolites in yeast; cited from earlier work
Water solubility = assay type: physicochemical; conditions: water / assay medium
[3] = test system: DNA repair null mutant yeast strains; assay type: cell-based, Saccharomyces cerevisiae
[4] = Saccharomyces cerevisiae, 17 h, read-out: log 1/IC50 Obsd (converted)

| SMILES | log 1/ICFR50 Obsd (yeast cells) | IC50 (S. cerevisiae [2]; [4]) [mM] | IC80 (S. cerevisiae [2]; Saccharomyces cerevisiae, 17 h) [mM] | other results |
| --- | --- | --- | --- | --- |
| Oc1c(Cl)c(Cl)c(Cl)c(Cl)c1Cl [2,3,4,5,6-Cl5] | 3.96 |  |  |  |
| Oc1c(F)c(F)c(F)c(F)c1F [2,3,4,5,6-F5] | 2.05 |  |  |  |
| Oc1cc(Cl)c(Cl)c(Cl)c1Cl [2,3,4,5-Cl4] | 3.92 |  |  |  |
| Oc1cccc(Cl)c1Cl [2,3-Cl2] | 2.68 |  |  |  |
| Oc1cc(Cl)c(Cl)cc1Cl [2,4,5-Cl3] | 3.26 |  |  |  |
| Oc1c(I)cc(I)cc1I [2,4,6-(I)3] | 4.3 |  |  |  |
| Oc1c(Cl)cc(Cl)cc1Cl [2,4,6-Cl3] | 3.28 |  |  |  |
| Oc1ccc(Cl)cc1Cl [2,4-Cl2] | 2.77 |  |  |  |
| Oc1c(Cl)cccc1Cl [2,6-Cl2] | 2.52 |  |  |  |
| Oc1ccccc1Br [2-Br] | 2.08 |  |  |  |
| COc1ccc(O)c(C(C)(C)C)c1 [2-C(CH3)3,4-OCH3, 2-tert-butyl-4-methoxy-phenol] |  | 0.288 | 0.407 | Induction of deletion, fold increase over untreated control, Obsd (S. cerevisiae [1]): 2.57 fold; Induction of deletion, fold increase over untreated control, Obsd (S. cerevisiae [1]; listed as BHA-2): greater than 2 fold |
| Cc1ccc(O)c(N)c1 [2-NH2,4-CH3] | 1.07 |  |  |  |
| Oc1ccccc1O [2-OH (catechol), catechol] |  | 2.24 | 3.39 | Induction of deletion, fold increase over untreated control, Obsd (S. cerevisiae [1]): 2.26 fold |
| Oc1cc(Cl)c(Cl)c(Cl)c1 [3,4,5-Cl3] | 3.3 |  |  |  |
| CC(C)(C)c1cc(O)cc(C(C)(C)C)c1 [3,5-(C(CH3)3)2] | 3.96 |  |  |  |
| COc1cc(O)cc(OC)c1 [3,5-(OCH3)2] | 1.54 |  |  |  |
| COc1ccc(O)cc1C(C)(C)C [3-C(CH3)3,4-OCH3, 3-tert-butyl-4-methoxy-phenol] |  | 0.38 | 0.49 | deletion formation / genotoxicity in words (S. cerevisiae [1]; listed as BHA-3): do not increase the deletion formation; Induction of deletion, fold increase over untreated control, Obsd (S. cerevisiae [1]): 1.17 fold |
| Oc1cccc(C(F)(F)F)c1 [3-CF3] | 2.31 |  |  |  |
| CCCCCc1ccc(O)cc1 [4-(CH2)4CH3, 4-pentylphenol] |  | 0.0891 | 0.11 |  |
| CCCCCCCCCc1ccc(O)cc1 [4-(CH2)8CH3, 4-nonylphenol] |  | 0.02 | 0.0398 | Induction of deletion, fold increase over untreated control, Obsd (S. cerevisiae [1]): 2.58 fold; IC50 (S. cerevisiae [2]; Saccharomyces cerevisiae, 17 h): 0.02 mM |

| SMILES | log 1/ICFR50 Obsd (yeast cells) | IC50 (S. cerevisiae [2]; [4]) [mM] | IC80 (S. cerevisiae [2]; Saccharomyces cerevisiae, 17 h) [mM] | other results |
| --- | --- | --- | --- | --- |
| Oc1ccc(Br)cc1 [4-Br, 4-bromophenol] | 2.4 | 0.832 | 1.1 |  |
| Cc1ccc(O)c([N+](=O)[O-])c1 [4-CH3,2-NO2] | 2.1 |  |  |  |
| N#Cc1ccc(O)cc1 [4-CN, 4-cyanophenol] |  | 3.02 | 5.5 | Induction of deletion, fold increase over untreated control, Obsd (S. cerevisiae [1]): 1.25 fold |
| O=C(O)c1ccc(O)cc1 [4-COOH] | 1.75 |  |  |  |
| Cc1cc(O)cc(C)c1Cl [4-Cl, 3,5-(CH3)2] | 2.96 |  |  |  |
| Oc1ccc(Cl)cc1 [4-Cl, 4-chlorophenol] | 2.07 | 1.35 | 1.66 | Induction of deletion, fold increase over untreated control, Obsd (S. cerevisiae [1]): 1.85 fold |
| Oc1ccc(F)cc1 [4-F, 4-fluorophenol] |  | 4.79 | 6.17 | Induction of deletion, fold increase over untreated control, Obsd (S. cerevisiae [1]): 2.03 fold |
| Oc1ccccc1 [4-H, phenol] | 1.17 | 11 | 14.1 | Induction of deletion, fold increase over untreated control, Obsd (S. cerevisiae [1]): 2.27 fold |
| Oc1ccc(I)cc1 [4-I] | 2.4 |  |  |  |
| O=[N+]([O-])c1ccc(O)cc1 [4-NO2, 4-nitrophenol] | 2.85 | 0.603 | 0.813 |  |
| CCOc1ccc(O)cc1 [4-OC2H5, 4-ethoxyphenol] |  | 6.76 | 7.94 |  |
| CCCOc1ccc(O)cc1 [4-OC3H7, 4-propoxyphenol] |  | 1.82 | 2.24 |  |
| CCCCOc1ccc(O)cc1 [4-OC4H9, 4-butoxyphenol] |  | 0.525 | 0.692 |  |
| COc1ccc(O)cc1 [4-OCH3, 4-methoxyphenol] |  | 10.5 | 12.3 | Induction of deletion, fold increase over untreated control, Obsd (S. cerevisiae [1]): 2.01 fold |
| Oc1ccc(O)cc1 [4-OH, hydroquinone] |  | 27.5 | 40.7 | Induction of deletion, fold increase over untreated control, Obsd (S. cerevisiae [1]): 2.25 fold |
| CC(=O)Nc1ccc(O)cc1 [4-acetamidophenol] |  |  |  | increase in deletion frequencies in words (yeast): did not show a significant increase |
| CCCCCCCCCCCCc1ccc(O)cc1 [4-dodecylphenol] |  |  |  | solubility in words (Water solubility): poor water solubility; inhibition at 350 µM (S. cerevisiae [2]; Saccharomyces cerevisiae, read-out: growth inhibition): 40% |
| COc1ccc(O)c(C(C)(C)C)c1 [BHA, butylated hydroxy anisole] |  |  |  | growth phenotype of DNA repair null mutant strains [3]: growth defects in most of the DNA repair null mutant strains tested; also recorded: some level of growth defect; growth phenotype of Δrad4 strain [3]: more resistant; growth phenotype of Δrad14 strain [3]: increased sensitivity; deletion formation / genotoxicity in words (S. cerevisiae [1]): significant increase in deletion events; log 1/IC80 Obsd (S. cerevisiae [2]; 80% inhibition of yeast growth, 17 h, 30 °C, OD 655 nm): 3.37; log 1/IC50 Obsd (S. cerevisiae [2]; inhibition of yeast growth, 17 h, 30 °C, OD 655 nm): 3.72 |
| Cc1cc(C(C)(C)C)c(O)c(C(C)(C)C)c1 [BHT, 2,6-di-tert-butyl-4-methyl-phenol] |  | 0.132 | 0.251 | growth phenotype of DNA repair null mutant strains [3]: unresponsive; also recorded: negligible; also recorded: did not cause clear growth defects |
| CC(C)(c1ccc(O)cc1)c1ccc(O)cc1 [bisphenol-A, bisphenol A] |  | 0.676 | 0.813 |  |
